Assay results taken from patent publication US20260285924A1, “PEPTIDE THERAPEUTICS” (priority 2023, published 2026).

Experiments:
A375-NRAS^Q61K = experiment: Pan-Cancer PepTile fitness screen (lentiviral 40-mer peptide library, NGS abundance); type: cell-based, human; details: peptide enrichment day 14 vs day 0
Method: (§1) A peptide tilling screen was performed in A375 similarly to a screen done in MDA-MB-231 (FIG. 1) but with a different lentiviral library. The library (Pan-Cancer library) is composed of 1020 genes tiled every 6 amino acids into 40-mer amino acid long peptides. The gene selection was based on their implication in oncogenesis either being as oncogenes or tumor suppressors. The list was built using recent literature that identified new cancer drivers as well as databases such as Uniprot keywords (KW-0656: Proto-oncogene, KW-0043: Tumor suppressor), and Gene Ontology terms (GO1900117: Apoptosis, GO1901979: Cell cycle checkpoint) (FIG. 2). Aside from Human genes, a list of viral genes was also included (KW-1121: Modulation of host cell cycle by virus) that play roles in high jacking cell cycle progression and thus in oncogenesis (FIG. 2).
(§2) The model of study is melanoma, and this disease is stratified into 4 molecular subtypes, BRAF mutants, NRAS mutants, KIT amplification, NF1 mutations (FIG. 3A). The most prominent mutations found in patient affected with metastatic melanomas are BRAF^V600E and NRAS^Q61K (FIG. 3B). RAS play a key role in oncogenesis and resistance to treatments. Indeed, RAS activating mutations is found in ~20% of all human cancers and secondary NRAS mutation leads to acquired resistance to BRAF targeted therapy such as vemurafenib. Thus, the screen was performed in an A375 cell line model which derived from human BRAF^V600E melanoma as well as an engineered A375 transduced with HA-NRAS^Q61K (FIG. 4A, B). Both cell lines grow at a similar rate but the A375-NRAS^Q61K display more than 10-fold resistance to vemurafenib treatment compared to parental A375 (FIG. 4C, D).
(§3) These cells were transduced with the Pan-Cancer library at a low multiplicity of infection (MOI=0.1-0.3). Then, genomic DNA was extracted at day 0 and day 14 post-transduction to quantify the abundance of peptide for each temporal conditions using Next-generation sequencing. Each experimental replicates were deep sequenced with at least 150 million reads and show a coverage between 82-90% of the initial Pan-Cancer Peptide library (FIG. 5). Then, for each individual peptides a cellular fitness score was calculated based on their enrichment between day 0 and day 14. 8090 peptides negatively affecting growth of A375-WT were identified and 8153 peptides for the A375-NRAS^Q61K cell line (FIG. 6). […] Those common hits are found to be tiles from ~100 genes of the Pan-Cancer gene list and show a substantial biological function clustering.

A375-WT = experiment: Pan-Cancer PepTile/PiTile fitness screen (lentiviral 40-mer peptide library, NGS abundance); type: cell-based, human; design: key: enrichment of each peptide's NGS abundance, early day vs Day 14; details: for A375-WT Fitness Score: Pan-Cancer library, peptide enrichment day 14 vs day 0
Source text: FIGS. 13A-13D show Pan-Cancer PiTile Workflow. (A) The Pan-Cancer peptide library is composed of 1081 proteins tiled into 40-mer peptides at every 6 amino acids of the parental protein. The DNA-encoded library is cloned into lentiviral vectors and packaged into lentivirus. (B) A375 cell line was transduced with the Pan-Cancer PiTile library. Genomic DNA was then harvested at Day2 and Day 14 post-transduction and cell populations abundance expressing the different peptides were quantified using Next-Generation Sequencing (NGS). Peptide fitness score was then calculated by the abundance of each peptide at Day2 versus Day 14. Then the fitness signal is mapped over the original amino acid positions of the derived protein. (C) Coverage of the plasmid Pan-Cancer library and peptide-amplicons from Day2 and Day 14 replicated was determined by NGS. (D) Dot plot of the experimental result obtain from screening the Pan-Cancer library in A375 cell line.
as §1, §2, §3
We built a DNA-encoded peptide library composed of all known Human oncogenes and Tumor Suppressors that we fragmented in 40 amino acid long peptides, the Pan-Cancer library. Using lentiviral expression system, we transduced the Pan-Cancer library in A375 cell line. After 14 days of growth, the frequency of each peptide is measured by NGS and this reveal which peptides affect cell fitness. […]

Substance	A375-NRAS Fitness Score (A375-NRAS^Q61K)	A375-WT Fitness Score (A375-WT)	Fitness score (A375-WT; PanCancer Peptide Table (Table 3), lentivirally expressed 40-mer peptide tile)	Fitness score (A375-WT; PanCancer Peptide Table (Table 3), lentivirally expressed 40-mer peptide tile, negative = depleted)	Fitness score (A375-WT; PanCancer Peptide Table, 40-mer peptide tile expressed from lentiviral library)
ARID2_13: 40-mer peptide tile of ARID2, AA start position 72, ARID domain (IVEEFNFPRSCSNAAFALKQYYLRYLEKYEKVHHFGEDDD; UniProt Q68CP9 72-111, looked up, fragment)	0.85	−2.41	–	–	–
AXIN1_22: 40-mer peptide tile of AXIN1, AA start position 126, RGS domain (KLEPCDSNEEKRLKLARAIYRKYILDNNGIVSRQTKPATK; RGS domain peptide tile; UniProt O15169 126-165, looked up, fragment)	−0.54	−2.88	–	–	–
BRAF_64: 40-mer peptide tile of BRAF, AA start position 378, CR2 domain (NIDDLIRDQGFRGDGGSTTGLSATPPASLPGSLTNVKALQ; UniProt P15056 378-417, looked up, fragment)	−2.72	−2.28	–	–	–
CDKN2B_4: 40-mer peptide tile of CDKN2B, AA start position 18, ANK domain (LASAAARGLVEKVRQLLEAGADPNGVNRFGRRAIQVMMMG; UniProt P42772 18-57, looked up, fragment)	−3.63	0.36	–	–	–
CTNNB1_30: 40-mer peptide tile of CTNNB1, AA start position 174, Armadillo domain (MVHQLSKKEASRHAIMRSPQMVSAIVRTMQNTNDVETARC; UniProt P35222 174-213, looked up, fragment)	−0.85	−3.29	−3.30	–	–
DOCK4_114: 40-mer peptide tile of DOCK4, AA start position 678, Armadillo domain (LIKVLKWYVDRITEAERQEHIQEVLKAQEYIFKYIVQSRR; UniProt Q8N1I0 678-717, looked up, fragment)	−3.45	0.87	–	–	–
ELF4_39: 40-mer peptide tile of ELF4, AA start position 228, ETS domain	−1.35	−2.44	–	–	–
EP300_99: 40-mer peptide tile of EP300, AA start position 588, KIX domain	0.86	−3.20	–	–	–
FER_38: 40-mer peptide tile of FER, AA start position 222, F-BAR domain (LKGIFDEYSQITSLVTEEIVNVHKEIQMSVEQIDPSTEYN; UniProt P16591 222-261, looked up, fragment)	−1.48	−2.21	–	–	–
FLCN_43: 40-mer peptide tile of FLCN, AA start position 252, Longin domain (ACLHTSFAWLLKACGSRLTEKLLEGAPTEDTLVQMEKLAD; UniProt Q8NFG4 252-291, looked up, fragment)	−1.99	−1.76	–	–	–
FZD3_55: 40-mer peptide tile of FZD3, AA start position 324, Transmembrane domain (IEKKALLFHASAWGIPGTLTIILLAMNKIEGDNISGVCFV; UniProt Q9NPG1 324-363, looked up, fragment)	−3.27	−3.21	–	–	–
MAD1L1_78: 40-mer peptide tile of MAD1L1, AA start position 462, Coiled Coil domain (ELGGQKQRADMLEMELKMLKSQSSSAEQSFLFSREEADTL; UniProt Q9Y6D9 462-501, looked up, fragment)	−3.52	−4.42	–	–	–
MTOR_42: 40-mer peptide tile of MTOR, AA start position 246, HEAT domain	1.01	−3.36	–	−3.37	–
PIK3CA_38: 40-mer peptide tile of PIK3CA, AA start position 222, RBD (AEAIRKKTRSMLLSSEQLKLCVLEYQGKYILKVCGCDEYF; UniProt P42336 222-261, looked up, fragment)	−0.85	−2.72	–	–	–
SMARCA4_257: 40-mer peptide tile of SMARCA4, AA start position 1536, Bromodomain (AQTFNLEGSLIYEDSIVLQSVFTSVRQKIEKEDDSEGEES; UniProt P51532 1536-1575, looked up, fragment)	−0.54	−4.98	–	–	–
SMC3_124: 40-mer peptide tile of SMC3, AA start position 738, Coiled Coil domain (EMKMLKEKRQQSEKTFMPKQRSLQSLEASLHAMESTRESL; UniProt Q9UQE7 738-777, looked up, fragment)	0.13	−3.08	–	–	−3.09
SUZ12_23: 40-mer peptide tile of SUZ12, AA start position 132, WDB1 domain (FKVDDMLSKVEKMKGEQESHSLSAHLQLTFTGFFHKNDKP; UniProt Q15022 132-171, looked up, fragment)	−0.27	−2.12	–	–	–
